Here are results for 2 compounds from patent US20240360133A1, “FUSED TRICYCLIC COMPOUND, PREPARATION METHOD THEREFOR AND APPLICATION THEREOF IN MEDICINE” (Jiangsu Hengrui Pharmaceuticals Co., Ltd., priority 2020, published 2024).

Assay [1] deals with T1, human TLR7 (Homo sapiens, UniProt Q9NYK1).
T1 construct: host or cells: HEK-Blue hTLR7 (HEK293)
T1 sequence (Q9NYK1 27-1049): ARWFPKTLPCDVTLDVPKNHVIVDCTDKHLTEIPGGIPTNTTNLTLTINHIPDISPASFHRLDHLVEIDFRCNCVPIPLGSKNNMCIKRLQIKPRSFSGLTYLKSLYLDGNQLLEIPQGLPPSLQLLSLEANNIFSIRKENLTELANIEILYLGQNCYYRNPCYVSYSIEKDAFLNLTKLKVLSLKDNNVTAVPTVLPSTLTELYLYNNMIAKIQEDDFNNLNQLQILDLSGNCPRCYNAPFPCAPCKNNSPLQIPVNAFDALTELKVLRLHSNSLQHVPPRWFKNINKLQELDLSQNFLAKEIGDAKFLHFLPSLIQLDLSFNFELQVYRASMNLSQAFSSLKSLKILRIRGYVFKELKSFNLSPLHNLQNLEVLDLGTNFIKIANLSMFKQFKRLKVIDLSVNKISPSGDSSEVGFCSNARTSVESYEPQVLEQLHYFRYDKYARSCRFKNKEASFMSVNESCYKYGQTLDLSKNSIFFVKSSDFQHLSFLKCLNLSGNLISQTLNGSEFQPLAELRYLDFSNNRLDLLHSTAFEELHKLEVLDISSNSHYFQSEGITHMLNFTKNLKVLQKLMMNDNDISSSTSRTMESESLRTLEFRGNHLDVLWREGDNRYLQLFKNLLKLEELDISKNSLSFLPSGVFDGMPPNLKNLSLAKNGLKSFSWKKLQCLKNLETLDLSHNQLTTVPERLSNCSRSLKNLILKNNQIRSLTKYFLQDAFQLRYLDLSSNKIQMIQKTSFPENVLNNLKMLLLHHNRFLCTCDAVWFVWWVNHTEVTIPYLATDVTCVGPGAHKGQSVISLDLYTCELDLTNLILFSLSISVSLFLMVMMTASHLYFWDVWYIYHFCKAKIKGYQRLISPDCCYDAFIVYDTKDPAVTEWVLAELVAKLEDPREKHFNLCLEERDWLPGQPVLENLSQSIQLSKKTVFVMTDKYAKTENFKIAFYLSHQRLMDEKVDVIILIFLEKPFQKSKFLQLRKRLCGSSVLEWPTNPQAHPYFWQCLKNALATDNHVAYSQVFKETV
Kind of assay: Inhibitory effect on human TLR7 activation pathway (HEK-Blue hTLR7 SEAP reporter). Conditions: HEK-Blue hTLR7 cells, 1 μM resiquimod, 20 h, SEAP OD620. The format is cell-based. The protocol: (§1) • 1. HEK-Blue™ hTLR7 cell (Invivogen) • 2. Resiquimod (R848, Invivogen) • 3. Alkaline phosphatase detection medium (Quanti-Blue Detection, Invivogen) • 4. Blasticidin (Invivogen) • 5. Zeocin (Invivogen) • 6. Normocin (Invivogen) • 7. DMEM/HIGH Glucose (GE Healthcare) • 8. Fetal bovine serum (FBS, Gibco) • 9. Phosphate-buffered saline (Shanghai BasalMedia Technologies Co., Ltd.) • 10. Sterile purified water (made in-house by Shanghai Hengrui) • 11. 15 mL centrifuge tube (Corning) • 12. %-well formulating plate (Corning) • 13. 96-well flat-bottom cell culture plate (Corning) • 14. Constant-temperature cell incubator (Thermo scientific) • 15. Constant-temperature incubator (Shanghai Yiheng Scientific Instruments Co., Ltd.) • 16. PHERAstar FS microplate reader (BMG Labtech)
(§2) HEK-Blue™ hTLR7 cells were purchased from Invivogen. These cells are HEK293 cells transfected with the human Toll-like receptor 7 (TLR7) gene and the secreted alkaline phosphatase reporter gene (SEAP). The alkaline phosphatase reporter gene (SEAP) is under the regulation of the IFN—P minimal promoter comprising 5 NF-kB and AP-1 binding sites. Upon activation of TLR7 with an agonist, SEAP secretion is induced via downstream NF-kB and AP-1. After addition of an antagonist compound, the pathway described above is inhibited, and SEAP secretion is reduced. The activity of the compounds for the TLR7 pathway was evaluated by measuring OD620 through the SEAP substrate.
(§3) 20 mM test compounds dissolved in 100% DMSO were serially diluted with 100% DMSO to 2000, 400, 80, 16, 3.2, 0.64, 0.128, 0.0256 μM, with blank wells containing 100% DMSO. The compounds and 100% DMSO were then 20-fold diluted in DMEM/HIGH glucose media containing 10% inactivated FBS (complete media, the same applies below). Resiquimod was diluted to 10 μM with sterile water. The 10 μM resiquimod dilution in sterile water was added to a 96-well cell culture plate at 20 μL/well. The above compounds diluted in complete media and 100% DMSO were then added at 20 μL/well to wells containing resiquimod, 20 μL of sterile water and 20 μL of 100% DMSO diluted in the complete medium were added to negative control wells.
(§4) HEK-Blue™ hTLR7 cells were cultured in a DMEM/HIGH glucose medium containing 10% inactivated FBS, 100 μg/mL Normocin, 10 μg/mL blasticidin, and 100 μg/mL Zeocin. Cells that were in a good state of growth and had grown to 70%-80% were collected. The growth medium was discarded, 5-10 mL of PBS pre-heated at 37° C. was added to wash the cells once, and 2-5 mL of pre-heated PBS was added. The cells were cultured at 37° C. for 1-2 min, dispersed by pipetting, transferred to a 15 mL centrifuge tube, and counted, and the cell density was adjusted to 4.8-10′/mL with the complete medium. After density adjustment, 160 μL of the resulting cell suspension was added to the above 96-well cell culture plate to a final number of cells per well of 76,500/well. The final concentration of resiquimod was 1 μM, and the final concentrations of the test compounds were 10,000, 2000, 400, 80, 16, 3.2, 0.64, and 0.128 nM. The cells were cultured in a 37° C., 5% CO2 incubator for 20 h. Then 20 μL of the supernatant was added to 180 μL of the prepared alkaline phosphatase detection medium and incubated in the dark in a constant-temperature incubator at 37° C. for 120 min. Then the OD620 absorbance readings were taken on a microplate reader. The inhibition rate was calculated using the following formula: […]
Inhibition curves were plotted using Graphpad Prism software according to the concentrations of the compounds and the corresponding inhibition rates, and the concentrations of the compounds at which the inhibition rate reached 50%, i.e., IC50 values, were calculated and are shown in Table 1.

For assay [2], the target named is T2, human TLR8 (Homo sapiens, UniProt Q9NR97).
T2 construct: host or cells: HEK-Blue hTLR8 (HEK293)
T2 sequence (Q9NR97 27-1041): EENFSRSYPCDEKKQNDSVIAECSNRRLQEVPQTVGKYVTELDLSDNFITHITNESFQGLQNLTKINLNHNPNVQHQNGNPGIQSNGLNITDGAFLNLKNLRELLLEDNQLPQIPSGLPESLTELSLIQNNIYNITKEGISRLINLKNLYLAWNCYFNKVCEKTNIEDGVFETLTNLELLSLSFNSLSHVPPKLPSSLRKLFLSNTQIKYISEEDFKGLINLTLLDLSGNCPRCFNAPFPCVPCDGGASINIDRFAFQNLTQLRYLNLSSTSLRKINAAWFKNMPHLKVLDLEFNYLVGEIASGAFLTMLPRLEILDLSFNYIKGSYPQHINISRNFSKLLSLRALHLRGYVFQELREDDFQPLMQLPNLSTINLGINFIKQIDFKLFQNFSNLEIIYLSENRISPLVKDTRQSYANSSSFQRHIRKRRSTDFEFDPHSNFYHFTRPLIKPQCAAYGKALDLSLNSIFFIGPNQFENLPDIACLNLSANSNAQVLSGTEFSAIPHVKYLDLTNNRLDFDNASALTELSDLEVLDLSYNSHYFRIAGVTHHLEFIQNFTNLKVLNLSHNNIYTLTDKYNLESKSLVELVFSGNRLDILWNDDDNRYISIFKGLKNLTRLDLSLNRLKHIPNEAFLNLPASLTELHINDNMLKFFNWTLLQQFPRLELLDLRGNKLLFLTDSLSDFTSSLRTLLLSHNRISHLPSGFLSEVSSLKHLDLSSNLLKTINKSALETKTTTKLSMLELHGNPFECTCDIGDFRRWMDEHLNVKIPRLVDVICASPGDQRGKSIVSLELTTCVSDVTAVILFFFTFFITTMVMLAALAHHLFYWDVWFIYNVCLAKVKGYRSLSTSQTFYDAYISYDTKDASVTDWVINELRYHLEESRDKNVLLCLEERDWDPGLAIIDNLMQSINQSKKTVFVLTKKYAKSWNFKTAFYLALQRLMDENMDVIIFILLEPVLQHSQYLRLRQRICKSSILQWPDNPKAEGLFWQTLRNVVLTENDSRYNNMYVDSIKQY
In words: Inhibitory effect on human TLR8 pathway (HEK-Blue hTLR8 SEAP reporter). The format is cell-based. The settings on record: HEK-Blue hTLR8 cells, 6 μM resiquimod, 20 h, SEAP OD620. The protocol: as §1, with “hTLR8” for “hTLR7”, “96-well” for “%-well”
as §2, with “hTLR8” for “hTLR7”, “8 (TLR8)” for “7 (TLR7)”, “TLR8” for “TLR7”
as §3, with “to 60” for “to 10”, “The 60” for “The 10”
as §4, with “HEK-Blue™ hTLR8” for “HEK-Blue™ hTLR7”, “to 70%-8%” for “to 70%-80%”, “to 4.8×10^5/mL” for “to 4.8-10′/mL”, “was 6” for “was 1”, “min. The” for “min. Then the”
Inhibition curves were plotted using Graphpad Prism software according to the concentrations of the compounds and the corresponding inhibition rates, and the concentrations of the compounds at which the inhibition rate reached 50%, i.e., IC50 values, were calculated and are shown in Table 2.

Compound `Cc1cc(-c2[nH]c3cc4c(nc3c2C(C)C)CC(NC2CCOC2)CC4)cc(C)n1` (centres unmarked) [Example 3, 2-(2,6-Dimethylpyridin-4-yl)-3-isopropyl-N-(tetrahydrofuran-3-yl)-5,6,7,8-tetrahydro-1H-pyrrolo[3,2-b]quinolin-6-amine] yielded an IC50 in assay [1] of 14.9 nM.

The compound `Cc1cc(-c2[nH]c3cc4c(nc3c2C2CCOCC2)CNCC4)cc(C)n1` [Example 6, 2-(2,6-Dimethylpyridin-4-yl)-3-(tetrahydro-2H-pyran-4-yl)-5,6,7,8-tetrahydro-1H-pyrrolo[3,2-b][1,7]naphthyridine] showed an IC50 in assay [2] of 10.5 nM.
